Like-named read-outs stand apart in the source and are kept apart here.
Experiments:
[1] = tested on: wild type HBV; assay: Anti-HBV assay in AD-38 cell line (HBV in culture supernatant); format: cell-based; settings: for EC50: read-out: Anti-HBV activity EC50; for EC90: read-out: Anti-HBV activity EC90
Experimental: The anti-HBV activity of the compounds was determined by treating the AD-38 cell line carrying wild type HBV under the control of tetracycline (see Ladner S. K., Otto M. J., Barker C. S., Zaifert K., Wang G. H., Guo J. T., Seeger C. & King R. W. Antimicrob. Agents Chemother. 1997, 41, 1715-20). Removal of tetracycline from the medium [Tet (−)] results in the production of HBV. The levels of HBV in the culture supernatant fluids from cells treated with the compounds were compared with that of the untreated controls. Control cultures with tetracycline [Tet (+)] were also maintained to determine the basal levels of HBV expression. 3TC was included as positive control.
The median effective concentrations (EC50) ranges of several of the compounds described herein against HBV are shown in Table 3: […]

[2] = Cellular toxicity assay in HepG2 cells; format: cell-based; settings: human, HepG2 cells; read-out: Cytotoxicity; CC50 (μM) HepG2
Experimental: (§1) The toxicity of the compounds was assessed in Vero, human PBM, CEM (human lymphoblastoid), MT-2, and HepG2 cells, as described previously (see Schinazi R. F., Sommadossi J.-P., Saalmann V., Cannon D. L., Xie M.-Y., Hart G. C., Smith G. A. & Hahn E. F. Antimicrob. Agents Chemother. 1990, 34, 1061-67). Cycloheximide was included as positive cytotoxic control, and untreated cells exposed to solvent were included as negative controls. The cytotoxicity IC50 was obtained from the concentration-response curve using the median effective method described previously (see Chou T.-C. & Talalay P. Adv. Enzyme Regul. 1984, 22, 27-55; Belen'kii M. S. & Schinazi R. F. Antiviral Res. 1994, 25, 1-11).

[3] = Cellular toxicity assay in CEM cells; format: cell-based, human; settings: human, CEM lymphoblastoid cells; CEM cells; read-out: Cytotoxicity; CC50 (μM) CEM
Experimental: as §1

[4] = Cellular toxicity assay in Vero cells; format: cell-based; settings: African green monkey, Vero cells; read-out: Cytotoxicity; CC50 (μM) VERO
Experimental: as §1

[5] = Cellular toxicity assay in human PBM cells; format: cell-based; settings: human PBM cells, read-out: Cytotoxicity, CC50 (μM) PBM
Experimental: as §1

[6] = Hepatitis B virus, AD-38 cell line, Tet (-)

| SMILES | EC50 [1, 6] [nM] | EC90 [1, 6] [nM] | CC50 [2] [µM] | CC50 [3] [µM] | CC50 [4] [µM] | CC50 ([5]; human) [µM] | EC50 ([1]; Hepatitis B virus) [nM] | CC50 [5] [µM] | EC50 ([1]; AD-38 cell line, Tet (-)) [nM] |
| --- | --- | --- | --- | --- | --- | --- | --- | --- | --- |
| Nc1ccn([C@@H]2CS[C@H](CO)O2)c(=O)n1 [Compound 3TC, lamivudine, reference compound] | 100 to 1000 | 1000 to 10000 |  |  |  |  |  |  |  |
| Fc1ccc(C2N=C(c3ccccn3)NC(CN3CCOCC3)=C2C#CC2CC2)c(Cl)c1 (stereo not drawn) [Compound 8, 4-((6-(2-Chloro-4-fluorophenyl)-5-(cyclopropylethynyl)-2-(pyridin-2-yl)-3,6-dihydropyrimidin-4-yl)methyl)morpholine] | 100 to 1000 | 100 to 1000 | 36 | 20 | 49 | 62 |  |  |  |
| Cc1c(C(=O)C(=O)NCCCN(CCCNC(=O)C(=O)c2c(C)c(C(=O)Nc3ccc(F)c(F)c3)n(C)c2C)CCCNC(=O)C(=O)c2c(C)c(C(=O)Nc3ccc(F)c(F)c3)n(C)c2C)c(C)n(C)c1C(=O)Nc1ccc(F)c(F)c1 [Compound 16a, 4,4′,4″-(2,2′,2″-((Nitrilotris(propane-3,1-diyl))tris(azanediyl))tris(2-oxoacetyl))tris(N-(3,4-difluorophenyl)-1,3,5-trimethyl-1H-pyrrole-2-carboxamide)] | 100 to 1000 | 1000 to 10000 | > 100 | > 100 | 9 | > 100 |  |  |  |
| CCOP(=O)(Cn1cc(CNC(=O)C(=O)c2c(C)c(C(=O)Nc3ccc(F)c(F)c3)n(C)c2C)nn1)OCC [Compound 68, Diethyl((4-((2-(5-((3,4-difluorophenyl)carbamoyl)-1,2,4-trimethyl-1H-pyrrol-3-yl)-2-oxoacetamido)methyl)-1H-1,2,3-triazol-1-yl)methyl) phosphonate] |  |  | > 100 |  |  |  | 100 to 1000 | 70 |  |
| Cc1c(C(=O)C(=O)NCc2cn(CCCCCCn3cc(CNC(=O)C(=O)c4c(C)c(C(=O)Nc5ccc(F)c(F)c5)n(C)c4C)nn3)nn2)c(C)n(C)c1C(=O)Nc1ccc(F)c(F)c1 [Compound 71, 4,4′-(2,2′-(((Hexane-1,6-diylbis(1H-1,2,3-triazole-1,4-diyl))bis(methylene))bis(azanediyl))bis(2-oxoacetyl))bis(N-(3,4-difluorophenyl)-1,3,5-trimethyl-1H-pyrrole-2-carboxamide)] | 100 to 1000 | 1000 to 10000 | > 100 |  |  | > 100 |  |  |  |
| Cc1c(C(=O)C(=O)NCc2cn(CCCCCCCCn3cc(CNC(=O)C(=O)c4c(C)c(C(=O)Nc5ccc(F)c(F)c5)n(C)c4C)nn3)nn2)c(C)n(C)c1C(=O)Nc1ccc(F)c(F)c1 [Compound 74, 4,4′-(2,2′-(((Octane-1,8-diylbis(1H-1,2,3-triazole-1,4-diyl))bis(methylene))bis(azanediyl))bis(2-oxoacetyl))bis(N-(3,4-difluorophenyl)-1,3,5-trimethyl-1H-pyrrole-2-carboxamide)] | 0.1 to 1 | 1 to 10 | > 100 |  |  | > 100 |  |  |  |
| Cc1c(C(=O)C(=O)NCc2cn(CCCCCCCCCCn3cc(CNC(=O)C(=O)c4c(C)c(C(=O)Nc5ccc(F)c(F)c5)n(C)c4C)nn3)nn2)c(C)n(C)c1C(=O)Nc1ccc(F)c(F)c1 [Compound 77, 4,4′-(2,2′-(((decane-1,10-diylbis(1H-1,2,3-triazole-1,4-diyl))bis(methylene))bis(azanediyl))bis (2-oxoacetyl))bis(N-(3,4-difluorophenyl)-1,3,5-trimethyl-1H-pyrrole-2-carboxamide)] | 1 to 10 | 100 to 1000 | > 100 |  |  | > 100 |  |  |  |
| Cc1c(C(=O)C(=O)NCc2cn(CCOCCn3cc(CNC(=O)C(=O)c4c(C)c(C(=O)Nc5ccc(F)c(F)c5)n(C)c4C)nn3)nn2)c(C)n(C)c1C(=O)Nc1ccc(F)c(F)c1 [Compound 85, 4,4′-(2,2′-((((oxybis(ethane-2,1-diyl))bis(1H-1,2,3-triazole-1,4-diyl))bis(methylene))bis(azanediyl))bis(2-oxoacetyl))bis(N-(3,4-difluorophenyl)-1,3,5-trimethyl-1H-pyrrole-2-carboxamide)] | 1000 to 10000 |  |  |  |  |  |  |  |  |
| Cc1c(C(=O)C(=O)NCc2cn(CCOCCOCCn3cc(CNC(=O)C(=O)c4c(C)c(C(=O)Nc5ccc(F)c(F)c5)n(C)c4C)nn3)nn2)c(C)n(C)c1C(=O)Nc1ccc(F)c(F)c1 [Compound 89, 4,4′-(2,2′-(((((Ethane-1,2-diylbis(oxy))bis(ethane-2,1-diyl))bis(1H-1,2,3-triazole-1,4-diyl))bis (methylene))bis(azanediyl))bis(2-oxoacetyl))bis(N-(3,4-difluorophenyl)-1,3,5-trimethyl-1H-pyrrole-2-carboxamide)] | 1000 to 10000 |  | > 100 |  |  | 68 |  |  |  |
| Cc1c(C(=O)C(=O)NCc2cn(CCOCCOCCOCCn3cc(CNC(=O)C(=O)c4c(C)c(C(=O)Nc5ccc(F)c(F)c5)n(C)c4C)nn3)nn2)c(C)n(C)c1C(=O)Nc1ccc(F)c(F)c1 [Compound 94, 4,4′-(2,2′-((((((oxybis(ethane-2,1-diyl))bis(oxy))bis(ethane-2,1-diyl))bis(1H-1,2,3-triazole-1,4-diyl))bis(methylene))bis(azanediyl))bis(2-oxoacetyl))bis(N-(3,4-difluorophenyl)-1,3,5-trimethyl-1H-pyrrole-2-carboxamide)] | 1 to 10 |  | > 100 |  |  | > 100 |  |  |  |
| Cc1c(C(=O)C(=O)NCc2cn(CCOCCOCCOCCOCCOCCn3cc(CNC(=O)C(=O)c4c(C)c(C(=O)Nc5ccc(F)c(F)c5)n(C)c4C)nn3)nn2)c(C)n(C)c1C(=O)Nc1ccc(F)c(F)c1 [Compound 95, 4,4′-(2,2′-((((3,6,9,12,15-Pentaoxaheptadecane-1,17-diyl)bis(1H-1,2,3-triazole-1,4-diyl))bis (methylene))bis(azanediyl))bis(2-oxoacetyl))bis(N-(3,4-difluorophenyl)-1,3,5-trimethyl-1H-pyrrole-2-carboxamide)] |  |  |  |  |  |  |  |  | 10 to 100 |
| Cc1c(C(=O)C(=O)NCc2cn(CCOCCOCC(COCCOCCN=[N+]=[N-])(COCCOCCN=[N+]=[N-])COCCOCCn3cc(CNC(=O)C(=O)c4c(C)c(C(=O)Nc5ccc(F)c(F)c5)n(C)c4C)nn3)nn2)c(C)n(C)c1C(=O)Nc1ccc(F)c(F)c1 [Compound 108, 4,4′-(2,2′-((((8,8-bis((2-(2-azidoethoxy)ethoxy)methyl)-3,6,10,13-tetraoxapentadecane-1,15-diyl)bis(1H-1,2,3-triazole-1,4-diyl))bis(methylene))bis(azanediyl))bis(2-oxoacetyl))bis(N-(3,4-difluorophenyl)-1,3,5-trimethyl-1H-pyrrole-2-carboxamide)] | 10 to 100 | 100 to 1000 | > 100 |  |  | > 100 |  |  |  |
| Cc1c(C(=O)C(=O)NCc2cn(CCOCCOCC(COCCOCCN=[N+]=[N-])(COCCOCCn3cc(CNC(=O)C(=O)c4c(C)c(C(=O)Nc5ccc(F)c(F)c5)n(C)c4C)nn3)COCCOCCn3cc(CNC(=O)C(=O)c4c(C)c(C(=O)Nc5ccc(F)c(F)c5)n(C)c4C)nn3)nn2)c(C)n(C)c1C(=O)Nc1ccc(F)c(F)c1 [Compound 109] | 100 to 1000 | 1000 to 10000 | > 100 |  |  | > 100 |  |  |  |
| Cc1c(C(=O)C(=O)NCc2cn(CCOCCOCC(COCCOCCn3cc(CNC(=O)C(=O)c4c(C)c(C(=O)Nc5ccc(F)c(F)c5)n(C)c4C)nn3)(COCCOCCn3cc(CNC(=O)C(=O)c4c(C)c(C(=O)Nc5ccc(F)c(F)c5)n(C)c4C)nn3)COCCOCCn3cc(CNC(=O)C(=O)c4c(C)c(C(=O)Nc5ccc(F)c(F)c5)n(C)c4C)nn3)nn2)c(C)n(C)c1C(=O)Nc1ccc(F)c(F)c1 [Compound 110] | 100 to 1000 | 1000 to 10000 | > 100 |  |  | > 100 |  |  |  |
| C#CCNC(=O)C(=O)c1c(C)c(C(=O)Nc2ccc(F)c(F)c2)n(CC#CC)c1C [Compound 119, 1-(But-2-yn-1-yl)-N-(3,4-difluorophenyl)-3,5-dimethyl-4-(2-oxo-2-(prop-2-yn-1-ylamino)acetyl)-1H-pyrrole-2-carboxamide] |  |  | > 100 |  |  | > 100 | 10 to 100 |  |  |
| C#CCn1c(C)c(C(=O)C(=O)NC(C)(C)C#C)c(C)c1C(=O)Nc1ccc(F)c(F)c1 [Compound 120, N-(3,4-Difluorophenyl)-3,5-dimethyl-4-(2-((2-methylbut-3-yn-2-yl)amino)-2-oxoacetyl)-1-(prop-2-yn-1-yl)-1H-pyrrole-2-carboxamide] | 0.01 to 0.1 | 1 to 10 | > 100 |  |  | > 100 |  |  |  |
| Cc1c(C(=O)C(=O)NCc2cn(CCOCCOCC(COCCOCCn3cc(CNC(=O)C(=O)c4c(C)c(C(=O)Nc5ccc(F)c(F)c5)n(C)c4C)nn3)COCCOCCn3cc(CNC(=O)C(=O)c4c(C)c(C(=O)Nc5ccc(F)c(F)c5)n(C)c4C)nn3)nn2)c(C)n(C)c1C(=O)Nc1ccc(F)c(F)c1 [Compound 122] | 100 to 1000 |  |  |  |  |  |  |  |  |

From US20230056135A1, “MONOMER AND MULTIMERIC ANTI-HBV AGENTS” (priority 2018, published 2023)
